Source: patent publication US20240165083A1, “TASIPIMIDINE FORMULATIONS AND USE THEREOF” (ORION CORPORATION, priority 2021, published 2024)

Legend:
Assay type in all cases: in vivo, dog
[1] = tested on: client-owned dogs with a history of acute anxiety and fear associated with noise due to fireworks; assay: Clinical field study in dogs: noise anxiety (fireworks); conditions: 30 μg/kg orally 1-3 times as needed, New Year's Eve
Method: (§1) Three randomized, double-blind, placebo-controlled, clinical field studies were conducted for evaluating the effectiveness and clinical safety of tasipimidine for the treatment of situational anxiety and fear-based behaviors in dogs triggered by events such as travel, noise, or owner departure. Across all three studies dogs were randomized to receive either 0.03 mg/kg of tasipimidine (n=131) or placebo (n=133) orally at home by the owner. Assessments were made using video (in the case of when left alone or car travel) or by the caretaker present during the fear inducing incident (in the case of noise anxiety). Both were assessed using a numerical rating scale with scores 1-5.
The first study was conducted in client-owned dogs with a history of acute anxiety and fear associated with noise due to fireworks. Dogs receive tasipimidine 30 μg/kg or placebo 1-3 times as needed with at least 3 hours between doses during New Year's Eve. The primary efficacy variable was the owner's assessment of the effect of study treatment on the dog's signs of acute anxiety and fear due to fireworks. The assessment was made once at least 2 hours after the last dose or at 1:00 A.M., whichever occurred later.

[2] = tested on: client-owned dogs suffering from separation anxiety; assay: Clinical field study in dogs: separation anxiety; conditions: 30 μg/kg orally 1-3 times a day as needed, 5-7 days a week for 5 weeks
Method: as §1
The second study was conducted in client-owned dogs suffering from separation anxiety. Dogs received tasipimidine 30 μg/kg or placebo 1-3 times a day as needed 5-7 days a week for 5 weeks. The primary efficacy variable was the owner's assessment of the effect of the study treatment on acute anxiety related to the owner's departure. Dog owners assessed the effect of the study treatment on their dog's signs of separation anxiety from video recordings after returning home. The owner also took into account the signs of the dog's behavior during the separation (e.g., destruction and elimination) that were not visible in the video recording.

[3] = tested on: client-owned dogs suffering from travel anxiety; assay: Clinical field study in dogs: travel anxiety; conditions: single oral dose 30 μg/kg approximately 1 hour before car travel
Method: as §1
The third study was conducted in client-owned dogs suffering from travel anxiety. Dogs received a single dose of tasipimidine 30 μg/kg or placebo approximately 1 hour before car travel. The primary efficacy variable was the external observer's assessment of signs of anxiety and fear from video recordings. The owner assessed the treatment effect based on the dog's behavior during the first 10 minutes of car travel.

[4] = tested on: dogs; assay: Clinical safety in the three clinical field studies in dogs; conditions: 30 μg/kg orally
Method: as §1

COc1cccc2c1CCOC2C1=NCCN1 (stereo not shown) [Tasipimidine, 2-(5-methoxyisochroman-1-yl)-4,5-dihydro-1H-imidazole]
treatment effect compared with placebo: owner's assessment of signs of acute anxiety and fear due to fireworks [1]: statistically significant treatment effect in favor of tasipimidine | treatment effect compared with placebo: owner's assessment of acute anxiety related to the owner's departure [2]: statistically significant treatment effect in favor of tasipimidine | treatment effect compared with placebo: external observer's assessment of signs of anxiety and fear from video recordings [3]: statistically significant treatment effect in favor of tasipimidine | marked ataxia or clinical sedation [4]: did not produce marked ataxia or clinical sedation
